In BindingDB's records for doi:10.1016/s0028-3908(05)80009-7 (Universit&Eacute, 1994):
Where a SMILES comes first, the peptide text is derived from it. [ ]: non-standard residue; d: D form. ξ: configuration not given here. Ile(3ξ) = CCC(C)[C@H](N)C(=O)O

What follows are molecules tested against T1, Pituitary adenylate cyclase-activating polypeptide (Rattus norvegicus, UniProt P13589).
T1 sequence (P13589 whole entry): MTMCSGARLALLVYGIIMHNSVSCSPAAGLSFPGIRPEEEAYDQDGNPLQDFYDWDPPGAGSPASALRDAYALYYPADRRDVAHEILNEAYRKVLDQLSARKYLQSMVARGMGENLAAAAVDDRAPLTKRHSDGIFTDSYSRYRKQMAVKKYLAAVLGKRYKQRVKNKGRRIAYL
A Ki of 1 nM was found for `CC[C@H](C)[C@H](NC(=O)CNC(=O)[C@H](CC(=O)O)NC(=O)[C@H](CO)NC(=O)[C@H](Cc1cnc[nH]1)NC(C)=O)C(=O)N[C@@H](Cc1ccccc1)C(=O)N[C@H](C(=O)N[C@@H](CC(=O)O)C(=O)N[C@@H](CO)C(=O)N[C@@H](Cc1ccc(O)cc1)C(=O)N[C@@H](CO)C(=O)N[C@@H](CCCNC(=N)N)C(=O)N[C@@H](Cc1ccc(O)cc1)C(=O)N[C@@H](CCCNC(=N)N)C(=O)N[C@@H](CCCCN)C(=O)N[C@@H](CCC(N)=O)C(=O)N[C@@H](CCSC)C(=O)N[C@@H](C)C(=O)N[C@H](C(=O)N[C@@H](CCCCN)C(=O)N[C@@H](CCCCN)C(=O)N[C@@H](Cc1ccc(O)cc1)C(=O)N[C@@H](CC(C)C)C(=O)N[C@@H](C)C(=O)N[C@@H](C)C(=O)N[C@H](C(=O)N[C@@H](CC(C)C)C(N)=O)C(C)C)C(C)C)[C@@H](C)O` [[AcHis1]PACAP(1-27)] in this work.
A Ki of 9 nM was found for `CCC(C)[C@H](N)C(=O)N[C@@H](Cc1ccccc1)C(=O)N[C@H](C(=O)N[C@@H](CC(=O)O)C(=O)N[C@@H](CO)C(=O)N[C@@H](Cc1ccc(O)cc1)C(=O)N[C@@H](CO)C(=O)N[C@@H](CCCN=C(N)N)C(=O)N[C@@H](Cc1ccc(O)cc1)C(=O)N[C@@H](CCCN=C(N)N)C(=O)N[C@@H](CCCCN)C(=O)N[C@@H](CCC(N)=O)C(=O)N[C@@H](CCSC)C(=O)N[C@@H](C)C(=O)N[C@H](C(=O)N[C@@H](CCCCN)C(=O)N[C@@H](CCCCN)C(=O)N[C@@H](Cc1ccc(O)cc1)C(=O)N[C@@H](CC(C)C)C(=O)N[C@@H](C)C(=O)N[C@@H](C)C(=O)N[C@H](C(=O)N[C@@H](CC(C)C)C(=O)NCC(=O)N[C@@H](CCCCN)C(=O)N[C@@H](CCCN=C(N)N)C(=O)N[C@@H](Cc1ccc(O)cc1)C(=O)N[C@@H](CCCCN)C(=O)N[C@@H](CCC(N)=O)C(=O)N[C@@H](CCCN=C(N)N)C(=O)N[C@H](C(=O)N[C@@H](CCCCN)C(=O)N[C@@H](CC(N)=O)C(=O)N[C@@H](CCCCN)C(N)=O)C(C)C)C(C)C)C(C)C)[C@@H](C)O` (stereo not given in full) [PACAP(5-38)] (H-[Ile(3ξ)]FTDSYSRYRKQMAVKKYLAAVLGKRYKQRVKNK-NH2) in this work.
A Ki of 3000 nM was found for `CCC(C)[C@H](NC(=O)CNC(=O)[C@@H](N)CC(=O)O)C(=O)N[C@@H](Cc1ccccc1)C(=O)N[C@H](C(=O)N[C@@H](CC(=O)O)C(=O)N[C@@H](CO)C(=O)N[C@@H](Cc1ccc(O)cc1)C(=O)N[C@@H](CO)C(=O)N[C@@H](CCCN=C(N)N)C(=O)N[C@@H](Cc1ccc(O)cc1)C(=O)N[C@@H](CCCN=C(N)N)C(=O)N[C@@H](CCCCN)C(=O)N[C@@H](CCC(N)=O)C(=O)N[C@@H](CCSC)C(=O)N[C@@H](C)C(=O)N[C@H](C(=O)N[C@@H](CCCCN)C(=O)N[C@@H](CCCCN)C(=O)N[C@@H](Cc1ccc(O)cc1)C(=O)N[C@@H](CC(C)C)C(=O)N[C@@H](C)C(=O)N[C@@H](C)C(=O)N[C@H](C(=O)N[C@@H](CC(C)C)C(N)=O)C(C)C)C(C)C)[C@@H](C)O` (stereo not given in full) [PACAP(3-27)] (H-DG[Ile(3ξ)]FTDSYSRYRKQMAVKKYLAAVL-NH2) in this work.
A Ki of 8 nM was found for `CCC(C)[C@H](NC(=O)CNC(=O)[C@H](CC(=O)O)NC(=O)[C@@H](Cc1ccccc1)NC(=O)[C@@H](N)Cc1cnc[nH]1)C(=O)N[C@@H](Cc1ccccc1)C(=O)N[C@H](C(=O)N[C@@H](CC(=O)O)C(=O)N[C@@H](CO)C(=O)N[C@@H](Cc1ccc(O)cc1)C(=O)N[C@@H](CO)C(=O)N[C@@H](CCCN=C(N)N)C(=O)N[C@@H](Cc1ccc(O)cc1)C(=O)N[C@@H](CCCN=C(N)N)C(=O)N[C@@H](CCCCN)C(=O)N[C@@H](CCC(N)=O)C(=O)N[C@@H](CCSC)C(=O)N[C@@H](C)C(=O)N[C@H](C(=O)N[C@@H](CCCCN)C(=O)N[C@@H](CCCCN)C(=O)N[C@@H](Cc1ccc(O)cc1)C(=O)N[C@@H](CC(C)C)C(=O)N[C@@H](C)C(=O)N[C@@H](C)C(=O)N[C@H](C(=O)N[C@@H](CC(C)C)C(=O)NCC(=O)N[C@@H](CCCCN)C(=O)N[C@@H](CCCN=C(N)N)C(=O)N[C@@H](Cc1ccc(O)cc1)C(=O)N[C@@H](CCCCN)C(=O)N[C@@H](CCC(N)=O)C(=O)N[C@@H](CCCN=C(N)N)C(=O)N[C@H](C(=O)N[C@@H](CCCCN)C(=O)N[C@@H](CC(N)=O)C(=O)N[C@@H](CCCCN)C(N)=O)C(C)C)C(C)C)C(C)C)[C@@H](C)O` (stereo partly drawn) [[D-Phe2]PACAP-38] (H-H[dF]DG[Ile(3ξ)]FTDSYSRYRKQMAVKKYLAAVLGKRYKQRVKNK-NH2) in this work.
A Ki of 800 nM was found for `CCC(C)[C@H](NC(=O)CNC(=O)[C@H](CC(=O)O)NC(=O)[C@@H](Cc1ccccc1)NC(=O)[C@@H](N)Cc1cnc[nH]1)C(=O)N[C@@H](Cc1ccccc1)C(=O)N[C@H](C(=O)N[C@@H](CC(=O)O)C(=O)N[C@@H](CO)C(=O)N[C@@H](Cc1ccc(O)cc1)C(=O)N[C@@H](CO)C(=O)N[C@@H](CCCN=C(N)N)C(=O)N[C@@H](Cc1ccc(O)cc1)C(=O)N[C@@H](CCCN=C(N)N)C(=O)N[C@@H](CCCCN)C(=O)N[C@@H](CCC(N)=O)C(=O)N[C@@H](CCSC)C(=O)N[C@@H](C)C(=O)N[C@H](C(=O)N[C@@H](CCCCN)C(=O)N[C@@H](CCCCN)C(=O)N[C@@H](Cc1ccc(O)cc1)C(=O)N[C@@H](CC(C)C)C(=O)N[C@@H](C)C(=O)N[C@@H](C)C(=O)N[C@H](C(=O)N[C@@H](CC(C)C)C(N)=O)C(C)C)C(C)C)[C@@H](C)O` (stereo partly drawn) [[D-Phe2]PACAP-27] in this work.
A Ki of 0.5 nM was found for `CC[C@H](C)[C@H](NC(=O)CNC(=O)[C@H](CC(=O)O)NC(=O)[C@H](C)NC(=O)[C@@H](N)Cc1cnc[nH]1)C(=O)N[C@@H](Cc1ccccc1)C(=O)N[C@H](C(=O)N[C@@H](CC(=O)O)C(=O)N[C@@H](CO)C(=O)N[C@@H](Cc1ccc(O)cc1)C(=O)N[C@@H](CO)C(=O)N[C@@H](CCCNC(=N)N)C(=O)N[C@@H](Cc1ccc(O)cc1)C(=O)N[C@@H](CCCNC(=N)N)C(=O)N[C@@H](CCCCN)C(=O)N[C@@H](CCC(N)=O)C(=O)N[C@@H](CCSC)C(=O)N[C@@H](C)C(=O)N[C@H](C(=O)N[C@@H](CCCCN)C(=O)N[C@@H](CCCCN)C(=O)N[C@@H](Cc1ccc(O)cc1)C(=O)N[C@@H](CC(C)C)C(=O)N[C@@H](C)C(=O)N[C@@H](C)C(=O)N[C@H](C(=O)N[C@@H](CC(C)C)C(=O)NCC(=O)N[C@@H](CCCCN)C(=O)N[C@@H](CCCNC(=N)N)C(=O)N[C@@H](Cc1ccc(O)cc1)C(=O)N[C@@H](CCCCN)C(=O)N[C@@H](CCC(N)=O)C(=O)N[C@@H](CCCNC(=N)N)C(=O)N[C@H](C(=O)N[C@@H](CCCCN)C(=O)N[C@@H](CC(N)=O)C(=O)N[C@@H](CCCCN)C(N)=O)C(C)C)C(C)C)C(C)C)[C@@H](C)O` in this work.
A Ki of 90 nM was found for “H-YSRYRKQMAVKKYLAAVLGKRYKQRVKNK-NH2 [PACAP(10-38)]” in this work.
A Ki of 10 nM was found for `CC[C@H](C)[C@H](NC(=O)CNC(=O)[C@H](CC(=O)O)NC(=O)[C@@H](CCCN=C(N)N)NC(=O)[C@@H](N)Cc1cnc[nH]1)C(=O)N[C@@H](Cc1ccccc1)C(=O)N[C@H](C(=O)N[C@@H](CC(=O)O)C(=O)N[C@@H](CO)C(=O)N[C@@H](Cc1ccc(O)cc1)C(=O)N[C@@H](CO)C(=O)N[C@@H](CCCN=C(N)N)C(=O)N[C@@H](Cc1ccc(O)cc1)C(=O)N[C@@H](CCCN=C(N)N)C(=O)N[C@@H](CCCCN)C(=O)N[C@@H](CCC(N)=O)C(=O)N[C@@H](CCSC)C(=O)N[C@@H](C)C(=O)N[C@H](C(=O)N[C@@H](CCCCN)C(=O)N[C@@H](CCCCN)C(=O)N[C@@H](Cc1ccc(O)cc1)C(=O)N[C@@H](CC(C)C)C(=O)N[C@@H](C)C(=O)N[C@@H](C)C(=O)N[C@H](C(=O)N[C@@H](CC(C)C)C(=O)NCC(=O)N[C@@H](CCCCN)C(=O)N[C@@H](CCCN=C(N)N)C(=O)N[C@@H](Cc1ccc(O)cc1)C(=O)N[C@@H](CCCCN)C(=O)N[C@@H](CCC(N)=O)C(=O)N[C@@H](CCCN=C(N)N)C(=O)N[C@H](C(=O)N[C@@H](CCCCN)C(=O)N[C@@H](CC(N)=O)C(=O)N[C@@H](CCCCN)C(N)=O)C(C)C)C(C)C)C(C)C)[C@@H](C)O` [[DArg2]PACAP(1-38)] in this work.
A Ki of 30 nM was found for “H-SYSRYRKQMAVKKYLAAVLGKRYKQRVKNK-NH2 [PACAP(9-38)]” in this work.
A Ki of 30 nM was found for “H-DSYSRYRKQMAVKKYLAAVLGKRYKQRVKNK-NH2 [PACAP(8-38)]” in this work.
